Results from PMC5687316 (Acta Pharmaceutica Sinica. B, 2017).
Structures can show the parent of a compound that is named as a salt.

Columns and labels:
[1] = target: T1, UGT1A1 (Homo sapiens, UniProt P22309); assay: Inhibition of NCHN-4-O-glucuronidation in recombinant human UGT1A1; assay type: biochemical; conditions: for activity at 50 min, 10 µmol/L: human, recombinant human UGT1A1, pH 7.4, probe NCHN (NCHN-4-O-glucuronidation); for Inhibition type: recombinant human UGT1A1, Lineweaver-Burk and Dixon plots
T1 sequence (P22309 26-533): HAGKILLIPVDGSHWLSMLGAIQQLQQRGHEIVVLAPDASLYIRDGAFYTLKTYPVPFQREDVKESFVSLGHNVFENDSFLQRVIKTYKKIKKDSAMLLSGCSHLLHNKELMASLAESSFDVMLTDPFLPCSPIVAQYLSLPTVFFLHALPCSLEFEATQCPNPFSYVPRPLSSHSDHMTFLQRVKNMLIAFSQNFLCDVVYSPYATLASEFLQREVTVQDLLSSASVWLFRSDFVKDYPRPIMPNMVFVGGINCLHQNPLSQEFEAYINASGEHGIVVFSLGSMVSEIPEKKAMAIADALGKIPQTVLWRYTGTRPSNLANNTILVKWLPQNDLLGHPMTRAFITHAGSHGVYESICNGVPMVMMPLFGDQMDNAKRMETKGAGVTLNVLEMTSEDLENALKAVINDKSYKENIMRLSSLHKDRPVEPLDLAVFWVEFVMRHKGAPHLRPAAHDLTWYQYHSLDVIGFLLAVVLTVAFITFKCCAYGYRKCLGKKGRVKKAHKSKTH

[2] = Maximum plasma concentration in humans after oral administration; conditions: human, calculated as Cmax × fu; icotinib 125 mg × 3 daily, erlotinib 150 mg
[3] = target: T2, UGT1A1 in HLMs (Homo sapiens, UniProt P22309); assay type: biochemical; conditions: for Inhibition type: HLM, Lineweaver-Burk and Dixon plots; for time dependence of UGT1A1 inhibition: data not shown; for phase II metabolites of the inhibitor in the incubations: UGT1A1/HLM incubations with UDPGA
T2 sequence (P22309 26-533): T1 sequence (P22309 26-533)

[4] = Nonspecific binding to HLMs; assay type: in vitro ADME, human; conditions: HLMs 0.2 mg/mL
[5] = Binding to human plasma

SMILES	Ki [1]	IC50 ([1]; IC50, recombinant human UGT1A1 0.06 mg/mL, NCHN-4-O-glucuronidation)	activity at 50 min, 10 µmol/L [1]	Inhibition type [1]	Cmax,u [2]	Ki [3]	Inhibition type [3]	fold difference in Ki between icotinib and erlotinib ([3]; HLMs, NCHN-O-glucuronidation)	time dependence of UGT1A1 inhibition ([3]; HLMs)	IC50 ([3]; IC50, HLM 0.2 mg/mL, NCHN-4-O-glucuronidation)	phase II metabolites of the inhibitor in the incubations [3]	binding to HLMs [4]	fraction unbound [5]
C#Cc1cccc(Nc2ncnc3cc4c(cc23)OCCOCCOCCO4)c1 [Icotinib, 4-[(3-ethynylphenyl)amino]-6,7-benzo-12-crown-4-quinazoline hydrochloride]	10 µM	8.76 ± 0.78 µM	36%	Noncompetitive	530 nM	8.55 µM	Noncompetitive	about 7 fold	not time-dependent	5.15 ± 0.28 µM	no phase II metabolites	negligible binding	0.11
C#Cc1cccc(Nc2ncnc3cc(OCCOC)c(OCCOC)cc23)c1 [Erlotinib]	–	–	19%	Noncompetitive	550 nM	–	Noncompetitive	–	not time-dependent	–	no phase II metabolites	negligible binding	0.09
